Source: DBAASP
Values after ≈ are worked out from the molar mass of the structure shown.

Assays:
Test in all cases: ≥ marks a high value that may be exact or a test limit, other limits are often not marked, values filed in µg/mL are converted to µM
[1] = tested on: Escherichia coli DH5alpha
[2] = tested on: Bacillus subtilis DSM 357
Escherichia coli LWF+ = tested on: Escherichia coli LWF+
Bacillus subtilis L170 = tested on: Bacillus subtilis L170
[3] = tested on: Burkholderia cepacia J2540
Cupriavidus necator H16 = tested on: Cupriavidus necator H16
[4] = tested on: Escherichia coli BL21(DE3)
Escherichia coli JM109 = tested on: Escherichia coli JM109
[5] = tested on: Pseudomonas putida GPp104
[6] = tested on: Staphylococcus aureus ATCC BAA-1717
[7] = tested on: Staphylococcus aureus DSM 1104
[8] = tested on: Escherichia coli ATCC BAA-1025
[9] = tested on: Listeria monocytogenes ATCC 19112
[10] = tested on: Staphylococcus aureus ATCC 25904
[11] = tested on: Klebsiella pneumoniae ATCC 27736
[12] = tested on: Pseudomonas aeruginosa DSM 1117
[13] = tested on: Listeria monocytogenes ATCC 19111
[14] = tested on: Staphylococcus epidermidis DSM 1798
[15] = tested on: Pseudomonas aeruginosa ATCC 47085
[16] = tested on: Listeria monocytogenes ATCC 19114
[17] = tested on: Listeria monocytogenes F4244
[18] = tested on: Escherichia coli DSM 1103

For `CC(C)C[C@H](NC(=O)[C@H](C)NC(=O)[C@H](CC(C)C)NC(=O)[C@H](CCCCN)NC(=O)[C@H](Cc1c[nH]c2ccccc12)NC(=O)[C@H](C)NC(=O)[C@H](CCCCN)NC(=O)[C@H](CC(C)C)NC(=O)[C@H](C)NC(=O)[C@H](CC(C)C)NC(=O)[C@H](CCCCN)NC(=O)[C@H](CC(C)C)NC(=O)[C@H](C)NC(=O)[C@H](CC(C)C)NC(=O)[C@@H](N)CCCCN)C(=O)N[C@@H](CCCCN)C(=O)N[C@@H](C)C(=O)N[C@@H](C)C(N)=O` [KLALKLALKAWKLALKAA], the MIC [1] was 5.2 µM (≈ 10.1 µg/mL), the MIC [2] was 1.6 µM (≈ 3.12 µg/mL) and the MIC (Escherichia coli LWF+) was 10 µM (≈ 19.5 µg/mL). The MIC (Bacillus subtilis L170) was 1.6 µM (≈ 3.12 µg/mL).
For `CC[C@H](C)[C@H](NC(=O)[C@H](CCCCN)NC(=O)[C@H](CCCCN)NC(=O)[C@H](Cc1ccccc1)NC(=O)[C@H](CC(C)C)NC(=O)[C@H](CCCCN)NC(=O)[C@H](Cc1c[nH]c2ccccc12)NC(=O)[C@@H](N)CCCCN)C(=O)N[C@@H](Cc1ccccc1)C(=O)N[C@@H](CCCCN)C(=O)N[C@@H](CCCN=C(N)N)C(=O)N[C@H](C(=O)N[C@H](C(=O)N[C@@H](CCC(N)=O)C(=O)N[C@@H](CCCN=C(N)N)C(=O)N[C@H](C(=O)N[C@@H](CCCCN)C(=O)N[C@@H](CC(=O)O)C(=O)N[C@@H](Cc1ccccc1)C(=O)N[C@@H](CC(C)C)C(=O)N[C@@H](CCCN=C(N)N)C(=O)O)[C@@H](C)CC)C(C)C)[C@@H](C)CC` [KWKLFKKIFKRIVQRIKDFLR], the MIC [3] was 11.2 µM (≈ 31.3 µg/mL).
In the case of `CC[C@H](C)[C@H](NC(=O)[C@H](Cc1ccc(O)cc1)NC(=O)[C@@H](NC(=O)[C@@H]1CCCN1C(=O)[C@H](CCCN=C(N)N)NC(=O)[C@H](CC(N)=O)NC(=O)[C@H](CC(C)C)NC(=O)[C@@H](N)CCCN=C(N)N)C(C)C)C(=O)N1CCC[C@H]1C(=O)N[C@@H](CCC(N)=O)C(=O)N1CCC[C@H]1C(=O)N[C@@H](CCCN=C(N)N)C(=O)N1CCC[C@H]1C(=O)N1CCC[C@H]1C(=O)N[C@@H](Cc1cnc[nH]1)C(=O)N1CCC[C@H]1C(=O)N[C@@H](CCCN=C(N)N)C(=O)N[C@@H](CC(C)C)C(=O)O` [RLNRPVYIPQPRPPHPRL], the MIC (Cupriavidus necator H16) is reported as at least 50 µM, the MIC [4] is reported as 1.25 µM (≈ 2.76 µg/mL) and the MIC (Escherichia coli JM109) is reported as 10 µM (≈ 22.1 µg/mL). For the same molecule, the MIC [5] was 12.5 µM (≈ 27.6 µg/mL).
`CC[C@H](C)[C@H](NC(=O)[C@H](CCCCN)NC(=O)[C@@H](NC(=O)[C@H](CCC(N)=O)NC(=O)[C@@H](N)CCCNC(=N)N)[C@@H](C)CC)C(=O)N[C@@H](Cc1c[nH]c2ccccc12)C(=O)N[C@@H](Cc1ccccc1)C(=O)N[C@@H](CCC(N)=O)C(=O)N[C@@H](CC(N)=O)C(=O)N[C@@H](CCCNC(=N)N)C(=O)N[C@@H](CCCNC(=N)N)C(=O)N[C@@H](CCSC)C(=O)N[C@@H](CCCCN)C(=O)N[C@@H](Cc1c[nH]c2ccccc12)C(=O)N[C@@H](CCCCN)C(=O)N[C@@H](CCCCN)C(=O)O` [RQIKIWFQNRRMKWKK] gave an MIC [6] of at least 445 µM, an MIC [7] of at least 51 µM and an MIC [8] of 27.8 µM (≈ 62.5 µg/mL). The MIC [9] was at least 64 µM, the MIC [10] was at least 111 µM and the MIC [11] was at least 445 µM. For the same molecule, the MIC [12] was at least 51 µM, the MIC [13] was at least 32 µM and the MIC [14] was 13 µM (≈ 29.2 µg/mL). The MIC [15] was at least 55.6 µM, the MIC [16] was at least 64 µM and the MIC [17] was at least 128 µM. It also gave an MIC [18] of at least 51 µM.
